In patent publication US20220281930A1, “COMPOSITIONS AND METHODS FOR THE TREATMENT OF PATHOLOGICAL PAIN AND ITCH” (DUKE UNIVERSITY, priority 2019, published 2022):

Tests used:
[1] = test system: δ-cat; experiment: δ-cat nuclear translocation in primary neurons, immunolabeling morphometry; assay type: cell-based, rat; conditions: KP vs vehicle, FIG. 8C
Description: Immunocytochemistry labeling of cultured neuronal cells was carried out as previously described (Liedtke et al., 2013, Small 9, 1066-1075; Yeo et al., 2009, J Neurosci 29:14652-14662; Yeo et al., 2013, Proc Natl Acad Sci USA 110:4315-4320). Primary antibodies are shown in the antibody table. Anti-KCC2 primary antibodies were validated with developing rat primary cortical neurons; we observed an increase in staining pattern that tightly matched increase of KCC2 mRNA expression (Liedtke et al., 2013, Small 9:1066-1075; Yeo et al., 2009, J Neurosci 29:14652-14662.; Yeo et al., 2013, Proc Natl Acad Sci USA 110:4315-4320). Secondary antibodies used were goat anti-mouse IgG Alexa Fluor 594 (Invitrogen A11032) and goat anti-rabbit IgG Alexa Fluor 594 (Invitrogen A11012). DAPI stain was obtained from Sigma Aldrich (D9542). Stained cells were observed using an inverted confocal microscope (Zeiss LSM780).
We obtained stacks of images recorded at 0.35 μm intervals through separate channels with a 63× oil-immersion lens (NA, 1.40, refraction index, 1.45). Zen software (Zeiss) was used to construct composite images from each optical series by combining the images recorded through the different channels, and the same software was used to obtain Z projection images (image resolution: 1024×1024 pixels; pixel size: 0.11 μm). ImageJ was used for morphometry. […]

[2] = test system: neuronal [Cl—]i; experiment: Clomeleon chloride imaging in rat primary cortical neurons; assay type: cell-based
Description: Chloride imaging of primary cultured cortical neurons was conducted as previously described (Kuner and Augustine, 2000, Neuron 27:447-459; Liedtke et al., 2013, Small 9:1066-1075; Yeo et al., 2009, J Neurosci 29:14652-14662). A Clomeleon expression plasmid was transfected into primary cortical neurons by electroporation (Amaxa Nucleofector Device). Transfected neurons were verified by yellow fluorescent protein (YFP) fluorescence, and ratiometric images (excitation at λ=434 nm, dual emission at λ=485 and 535 nm; for resting chloride, six stable frames at […] were captured, which were averaged) were acquired using RATIOTOOL program. Calibration of Clomeleon signals (535 nm/485 nm emission ratio) was performed by using tributyltin-nigericin to establish a standard curve, which was then normalized for measured intraneuronal pH to take into account the pH sensitivity of Clomeleon.

[3] = test system: synaptophysin; experiment: Immuno-cytochemistry morphometry of primary human cortical neurons, synaptophysin; assay type: cell-based; conditions: 400 nM KP
Description: The neuron-enriched cultures were established from fetal cortical specimens at 15-20 weeks of gestation. The protocols for tissue processing complied with all federal and institutional guidelines. The cultures were plated on PEI (polyethyleneimine solution) substrate and maintained in Neurobasal media supplemented with B27 as previously described (Pelsman et al., 2003, International journal of developmental neuroscience 21:117-124; Yeo et al., 2013, Proc Natl Acad Sci USA 110:4315-4320).
For immunostaining, the cultures were treated for 2-4 days with vehicle or 400 nM KP, fixed with 4% PFA at day 10, and processed for double-staining with anti-KCC2 and anti-synaptophysin or anti-NeuN (see Table 1).
The 0.34 micrometer confocal slices through entire cell layers at different optical fields (n=17-28 for each group) of the fixated cultures were acquired using a Zeiss LSM700 confocal microscope.
Image Z-stacks were analyzed using Imaris 9.2.1 software. Optical density intensity sum values for each stack/channel were divided by corresponding data volumes and the resulting values were normalized to the number of specifically labeled cells within each stack. There were no significant differences in the number of cells between vehicle and KP-treated groups.

O=C1Cc2c([nH]c3ccc(Br)cc23)-c2ccccc2N1 [kenpaullone, 9-bromo-7,12-dihydro-indolo [3,2-d] [1]benzazepin-6(5H)-one]
δ-cat nuclear translocation [1]: significantly increases
KCC2 chloride transporter mediated chloride efflux ([2]; KP vs vehicle at 10 min and 20 min time-points): does not enhance
neuronal [Cl—]i ([2]; clomeleon, after KP treatment vs vehicle): robustly and significantly reduced
time to enhanced KCC2 gene expression and KCC2 chloride extrusion function ([2]; rat neurons, FIG. 2D): ≤ 3 h
increased synaptophysin expression relative to vehicle [3]: 54%
